Data set [1] concerns the target HPK full length, T165E S171E (Homo sapiens (Human), UniProt Q92918, S171E/T165E). In words: HPK1-FL HTRF enzymatic assay ("HTRF"). Format: biochemical. As to conditions: ATP 1 mM, read-out: HPK1 Ki. Put shortly:
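HTRF detection of phosphorylated biotin-SLP-76 used Eu-anti-pSLP76 antibody and SA-XL665, read after 60 min. The kinase reaction ran 60 min at […], following a 30-min compound preincubation with the full-length enzyme.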
In general terms: In TR-FRET formats the signal depends on donor and acceptor labels being close together.

Data set [2] concerns primary human pan T cells. In words: Human T-cell IL2 induction assay. Format: cell-based. The method, then: Assay Principle: Anti-CD3 and anti-CD28 activates TCR signaling in primary human pan T cells leading to IL-2 promoter induction. Secreted IL-2 in cell culture supernatant is detected by electrochemiluminescence using a capture antibody against IL-2 and an anti-IL-2 antibody labeled with SULFO-tag. Also see www.mesoscale.com for additional electrochemiluminescence technology information.
Assay Procedure: Incubate primary human pan T cells with varying concentrations of test compounds for 30 minutes in a humidified incubator at 37° C. and 5% CO2. Transfer cells to a plate pre-coated with a fixed concentration of anti-human CD3 (determined separately for each donor lot) and add soluble anti-human CD28 (final concentration=1 μg/ml). Stimulate cells in a humidified incubator at 37° C. and 5% CO2 for 4 hours. Transfer 25 μl of supernatant to a MSD single spot plate pre-coated with an anti-human IL-2 antibody. Incubate MSD plate overnight at 4° C. with gentle shaking. Wash MSD plate 4× with wash buffer. Add SULFO-tagged detection antibody at a 1:50 dilution and incubate at room temperature shaking for 2 hours. Wash MSD plate 4× with wash buffer and add 150 μl 2×MSD read buffer. Read on an MSD instrument. Normalize data to stimulated/untreated controls to calculate % activity at each concentration of compound.
Instrumentation: • Biomek FX for liquid handling (Beckman Coulter) • MSD SECTOR S 600 (Meso Scale Discovery)
Exemplary compounds of Formula (I) were tested in the human T-cell IL-2 induction assays.

Data set [3] relates to phosphorylation of SLP-76 (S376) by HPK-1 in human Jurkat cells. The data set can be described thus: pSLP76 assay (sandwich ELISA, anti-CD3 stimulated Jurkat cells). The data set is classed as cell-based. As to conditions: read-out: pSLP76 IC50. How it is done: Phospho-SLP76 (S376) is detected by sandwich ELISA using an anti-pSLP76(S376) capture antibody and a biotinylated anti-SLP76 detection antibody.
Incubate Jurkat cells with varying concentrations of test compounds for 30 minutes in a humidified incubator at 37° C. and 5% CO2. Add anti-CD3 DynaBeads at a 4:1 bead:cell ratio. Stimulate cells in a humidified incubator at 37° C. and 5% CO2 for 10 minutes. Add cold lysis buffer and incubate on a shaker at 4° C. for 30 minutes. Transfer cell lysates to a pre-blocked ELISA plate coated with capture antibody. Incubate at room temperature shaking for 2 hours. Wash ELISA plate 5× with wash buffer and add 25 μl of biotinylated detection antibody at a final concentration of 0.5 μg/ml. Incubate at room temperature shaking for 1 hour. Wash ELISA plate 5× with wash buffer and add 25 μl of streptavidin enzyme conjugate at a final dilution of 1:8000. Incubate at room temperature shaking for 20 minutes. Wash ELISA plate 5× with wash buffer and add 25 μl of TMB substrate solution. Incubate at room temperature in the dark shaking for 20 minutes. Add 25 μl of STOP solution and read on SoftMax Pro for absorbance at 450 nm.
Exemplary compounds of Formula (I) were tested in pSLP76 assays.
In general terms: In an ELISA, binding on a coated surface is turned into a signal by an enzyme label.

The next data set relates to gMDCKI cell line. In words: Permeability assay in gMDCKI cells. Format: in vitro ADME, canine. The conditions noted are these: apical-to-basolateral, 10 μM, 2-hour incubation. How it is done:
(§1) Cell permeability of compounds of interest was assessed in the gMDCKI cell line, which is a modified MDCKI (Madin-Darby canine kidney) originally acquired from American Type Culture Collection (Manassa, Va.) and generated at Genentech. […] Test article was tested at 10 μM in the apical-to-basolateral (A-B) and basolateral-to-apical (B-A) directions. Test compound was dissolved in transport buffer consisting of Hank's balanced salt solution and […] (Invitrogen Corporation, Grand Island, N.Y.). Transepithelial electrical resistance (TEER) and lucifer yellow (LY) permeability were used to monitor monolayer integrity at the beginning and the end of the experiments, respectively. Test articles were analyzed by LC-MS/MS.
(§2) The efflux ratio (ER) is calculated as (Papp, B−A/Papp, A−B).
(§3) Cell permeability were assessed for exemplary compounds of Formula (I).

Data set [4] relates to Cryopreserved human hepatocytes. In words: Hepatocyte stability assay. The data set is classed as in vitro ADME. The conditions noted are these: 1 μM, scaled hepatic clearance. The method, then:
(§4) Metabolic stability of compounds are assessed using a hepatocyte stability assay. Cryopreserved human hepatocytes from a 10 donor pool are quickly thawed at 37° C., suspended in prewarmed In VitroGRO™ HT Medium, and then centrifuged at 100×g at room temperature for 10 min. The supernatants are discarded, and cells are resuspended in 5 mL Dulbecco's Modified Eagle Medium (DMEM) medium. Cell viability in suspension is counted on a Hepatometer® Vision (Lonza, N.C.), and viable cells are then adjusted to […] in DMEM. Compounds are first diluted to 2 μM with DMEM medium, and then aliquots of 125 μL of drug-containing medium are transferred to 96-well non-coated plates. Incubation is initiated by the addition of 125 μL of hepatocyte suspension to yield a total incubation volume of 250 μL. Final concentration of each compound is 1 μM, and final cell density is 0.5×10^6 cells/mL. Incubations are conducted in a humidified incubator at 37° C. Aliquots of 50 μL incubation medium are taken out at different time intervals (0, 60, 120 and 180 min), and immediately mixed with 100 μL of ice-cold acetonitrile containing 50 nM propranolol (internal standard). Samples are then centrifuged at 10,000×g for 10 min, and 80 μL of supernatant is taken out and diluted with 160 μL of water prior to LC/MS-MS analysis.
(§5) Human hepatocyte stability was assessed for exemplary compounds of Formula (I) according to the above procedures.

A short description of data set [5]: Pharmacokinetic study in rat. Format: in vivo, Sprague Dawley rat. As to conditions: for bioavailability: male, Sprague Dawley, plasma. How it is done: Pharmacokinetic Study in Rat: Male Sprague Dawley rats obtained from Lingchang/Vital River Laboratory Animal Technology Co., Ltd., (Shanghai/Beijing, P.R. China) with body weight ranging between 200 g to 300 g were use in the PK studies. Group of 3 rats were given a 1 mg/kg intravenous bolus (IV) dose of the test article in solution formulation, and another group of 3 rats were given a 2 or 5 mg/kg oral (PO) dose of test article as a 0.5% methylcellulose with 0.2% Tween 80 (MCT) suspension or as a solution. Blood samples (250 μL, per time point) were collected serially via the catheter in femoral artery at 0.033, 0.083, 0.25, 0.5, 1, 2, 4, 6, and 8 hours after IV or PO administration from each of the rat. Blood samples were collected into pre-chilled tubes containing Potassium (K2) EDTA and centrifuged at 3,200 g for 10 minutes at 2 to 8° C. within 1 hour of collection to harvest plasma. Plasma samples were stored at −70° C. until LC/MS/MS analysis. Concentration in each plasma sample was determined by a non-validated LC/MS/MS. Data is acquired using multiple reaction monitoring (MRM) with specific transitions monitored for each compound.
Following PO administration, percent bioavailability (% F) was determined for each animal by dividing the dose normalized area under the plasma concentration-time curve, extrapolated to infinity (AUCinf) obtained following each PO dose by the mean dose normalized AUCinf of the animals dosed by IV injection. All PK parameters are presented as mean±standard deviation (SD).
Pharmacokinetic studies were conducted in rat for exemplary compounds of Formula (I).

Data set [6] is described as follows: Permeability assay in gMDCKI cells. The data set is classed as in vitro ADME, canine. The conditions noted are these: dog, MDCK, apical-to-basolateral, 2-hour incubation, read-out: MDCK AB Papp. How it is done:
as §1, §2, §3

Data set [7] is described as follows: Hepatocyte stability assay. The data set is classed as in vitro ADME. The conditions noted are these: cryopreserved human hepatocytes (10 donor pool, suspension), scaled hepatic clearance, read-out: HHep Clearance. How it is done: as §4, §5
Setting [8] is: Homo sapiens, Jurkat cells, anti-CD3 stimulation.

Where two headings read alike, the source gives them in different places.

HPK full length, T165E S171E, sequence (Q92918 whole entry T165E/S171E, looked up): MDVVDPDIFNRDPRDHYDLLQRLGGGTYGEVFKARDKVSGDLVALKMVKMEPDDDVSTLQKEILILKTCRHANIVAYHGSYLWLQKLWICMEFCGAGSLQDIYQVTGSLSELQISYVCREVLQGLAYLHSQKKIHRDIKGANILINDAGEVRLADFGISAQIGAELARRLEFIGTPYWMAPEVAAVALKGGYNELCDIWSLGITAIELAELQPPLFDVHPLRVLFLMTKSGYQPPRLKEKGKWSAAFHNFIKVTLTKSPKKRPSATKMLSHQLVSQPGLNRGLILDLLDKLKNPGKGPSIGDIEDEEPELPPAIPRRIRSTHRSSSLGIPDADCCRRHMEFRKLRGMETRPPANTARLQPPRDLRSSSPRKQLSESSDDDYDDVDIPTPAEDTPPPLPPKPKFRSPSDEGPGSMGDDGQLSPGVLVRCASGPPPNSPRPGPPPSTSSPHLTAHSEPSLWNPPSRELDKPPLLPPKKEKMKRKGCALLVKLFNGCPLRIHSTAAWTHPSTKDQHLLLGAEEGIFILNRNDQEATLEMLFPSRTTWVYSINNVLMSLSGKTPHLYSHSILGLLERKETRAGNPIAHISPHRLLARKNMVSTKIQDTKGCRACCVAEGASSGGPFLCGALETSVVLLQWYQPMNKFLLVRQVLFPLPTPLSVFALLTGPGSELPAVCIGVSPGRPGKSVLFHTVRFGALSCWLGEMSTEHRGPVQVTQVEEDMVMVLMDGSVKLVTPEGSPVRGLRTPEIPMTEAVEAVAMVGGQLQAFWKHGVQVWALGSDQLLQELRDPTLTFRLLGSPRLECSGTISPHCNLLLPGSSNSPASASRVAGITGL

Take `Cc1c(-c2cc3cc(NC(=O)O[C@H]4C[C@H](C(C)(C)O)C4)ncc3c(N)c2F)cnc2c1NCCO2` [Compound 574a, (1r,3r)-3-(2-Hydroxypropan-2-yl)cyclobutyl (8-amino-7-fluoro-6-(8-methyl-2,3-dihydro-1H-pyrido[2,3-b][1,4]oxazin-7-yl)isoquinolin-3-yl)carbamate]: the inhibition constant (Ki) in data set [1] came out at 0.02 nM. For the same compound, in data set [2] (assayed concentration 1.196 μM), the “% IL-2 increase relative to untreated cells” value is listed as 1634%. Moreover, the IC50 in data set [3] (Jurkat cells, anti-CD3 stimulation) stood at 32 nM. In the data set on gMDCKI cell line, the “MDCK AB Papp” value was found to be 12 ×10⁻⁶ cm/s. For the same compound, in data set [4], the “HHep Clearance” value is 8.3 mL/min/kg. In addition, the “% F” value in data set [5] (PO 2 mg/kg, 10% DMSO/60% PEG400/30% Water, Solution) is recorded as 16%.
For the compound `Cc1c(-c2cc3cc(NC(=O)O[C@@H]4CCC[C@H]4C#N)ncc3c(N)c2F)cnc2c1NCCO2` (single isomer, unassigned) [Compound 482a], the Ki in data set [1] was < 0.013 nM. The “% IL-2 increase relative to untreated cells” value in data set [2] (assayed concentration 2.778 μM) worked out at 737%. Moreover, the IC50 in data set [3] (setting [8]) stood at 38 nM. Further, in data set [6], the Papp at 2 h, 10 μM turned out to be 15 ×10⁻⁶ cm/s. In data set [7], the CLhep predicted at 1 μM is 11 mL/min/kg. The compound also returned a bioavailability in data set [5] (PO 5 mg/kg, MCT, pH = 2.5, Suspension) of 41%.
As for `Cc1c(-c2cc3cc(NC(=O)O[C@H]4COC[C@@H]4C)ncc3c(N)c2F)cnc2c1NCCO2` (single isomer, unassigned) [Compound 441b], the Ki in data set [1] is < 0.013 nM. Further, the “% IL-2 increase relative to untreated cells” value in data set [2] (assayed concentration 2.778 μM) came to 1158%. In data set [3] (setting [8]), the half-maximal inhibitory concentration (IC50) stood at 36 nM. Besides, in data set [6], the Papp at 2 h, 10 μM came out at 15 ×10⁻⁶ cm/s. For the same compound, the CLhep predicted at 1 μM in data set [7] was 6.9 mL/min/kg. The compound also gave a bioavailability in data set [5] (PO 2 mg/kg, 10/90 DMSO/MCT, Solution) of 30%.
As for `Cc1c(-c2cc3cc(NC(=O)N4CC(C)(F)C4)ncc3c(N)c2F)cnc2c1NCCO2` [Compound 755, N-(8-Amino-7-fluoro-6-(8-methyl-2,3-dihydro-1H-pyrido[2,3-b][1,4]oxazin-7-yl)isoquinolin-3-yl)-3-fluoro-3-methylazetidine-1-carboxamide], the Ki in data set [1] amounted to 0.09 nM. For the same compound, the “% IL-2 increase relative to untreated cells” value in data set [2] (assayed concentration 2.778 μM) was 1061%. Also, in data set [3] (setting [8]), the IC50 was 46 nM. For the same compound, the Papp at 2 h, 10 μM in data set [6] was determined as 10 ×10⁻⁶ cm/s. In data set [7], the CLhep predicted at 1 μM was 6.8 mL/min/kg. In data set [5] (PO 5 mg/kg, 10% DMSO/60% PEG400/30% Water, Solution), this compound showed a bioavailability of 4%.
On to `Cc1c(-c2cc3cc(NC(=O)O[C@H]4CCO[C@H]4C)ncc3c(N)c2F)cnc2c1NCCO2` (single isomer, unassigned) [Compound 510c], for which the Ki in data set [1] is < 0.013 nM. In data set [2] (assayed concentration 2.778 μM), the “% IL-2 increase relative to untreated cells” value is 700%. Also, in data set [3] (Homo sapiens, Jurkat), the IC50 came to 62 nM. For the same compound, in data set [6], the Papp at 2 h, 10 μM is 20 ×10⁻⁶ cm/s. For the same compound, the CLhep predicted at 1 μM in data set [7] is 8.7 mL/min/kg. For the same compound, the bioavailability in data set [5] (PO 2 mg/kg, MCT, Suspension) was 28%.

The Ki is the equilibrium dissociation constant of an inhibitor or competing ligand from its target. The term IC50 denotes the midpoint of a concentration-inhibition curve. The Papp is the rate of passage across a membrane or cell layer, normalised by area and donor concentration. The term bioavailability denotes dose-corrected exposure relative to a reference, in per cent. The low end stands for poor availability, the high end for good availability.

Values taken from patent US11612606B2, “8-aminoisoquinoline compounds and uses thereof” (priority 2018, dated 2023).
